Assay results as given in paper PMC5063977 (The Journal of Biological Chemistry, 2016).

Target: T1, RAMP2-CLR (AM1 receptor) (Homo sapiens, UniProt O60895+Q16602)
T1 construct: FLAG; expressed in transfected cells; host or cells: HEK-293 or HEK-293S cells, transient transfection, 1:1 RAMP:CLR
Assay: (Ca^2+)i mobilization, HEK-293 cells, RAMP2 + CLR
Format: cell-based
Settings: HEK293, percentage of maximal (Ca^2+)i release with 10 μM ionomycin, mean ± S.E., n = 5
Method: HEK-293 cells were transfected with FuGENE 6 (Roche Applied Science) in accordance with the manufacturer's instructions using a 1:3 (w:v) DNA:FuGENE ratio and a 1:1 ratio of RAMP to CLR. […] The transfected cell lines were grown for 24–48 h prior to assaying.
Transfected HEK-293 cells were grown to confluence in black, clear bottomed, 96-well plates. […] Cells were then washed followed by the addition of 100 μl of Ca^2+-free Hanks' balanced salt solution. […] Recordings were obtained every 0.5 s for 120 s. Peak magnitude was calculated using five-point smoothing followed by correction against background fluorescence. The peak was used to generate concentration-response curves and normalized relative to 10 μM ionomycin.
Data analysis for cAMP assays was performed in GraphPad Prism 6.0f (San Diego, CA). […] These values were then used to quantify signaling bias as change in log (τ/Ka) relative to the natural cognate ligand for the respective receptor ([41]). […] Statistical differences were analyzed using one-way ANOVA or Student's t test as appropriate with post hoc Bonferroni's or Dunnett's multiple comparisons, and p < 0.05 was considered significant. […] To quantitate the ligand-dependent response in the yeast system, a strain lacking GPA1 (MMY11), grown in rich medium, was used as a standard ([72]). […]

T1 sequence (Q16602 23-461): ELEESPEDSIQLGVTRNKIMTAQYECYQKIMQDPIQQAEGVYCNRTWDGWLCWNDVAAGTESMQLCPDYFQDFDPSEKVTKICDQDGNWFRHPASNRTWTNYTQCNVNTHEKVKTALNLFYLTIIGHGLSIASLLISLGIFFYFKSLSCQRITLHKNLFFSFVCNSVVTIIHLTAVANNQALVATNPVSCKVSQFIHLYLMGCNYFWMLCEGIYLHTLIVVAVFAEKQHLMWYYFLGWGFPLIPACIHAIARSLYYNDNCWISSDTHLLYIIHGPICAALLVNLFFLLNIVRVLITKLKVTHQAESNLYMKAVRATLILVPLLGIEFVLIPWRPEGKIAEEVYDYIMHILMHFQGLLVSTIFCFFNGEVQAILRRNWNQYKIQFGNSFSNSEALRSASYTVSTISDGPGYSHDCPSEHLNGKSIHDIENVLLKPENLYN
T1 sequence (O60895 43-175): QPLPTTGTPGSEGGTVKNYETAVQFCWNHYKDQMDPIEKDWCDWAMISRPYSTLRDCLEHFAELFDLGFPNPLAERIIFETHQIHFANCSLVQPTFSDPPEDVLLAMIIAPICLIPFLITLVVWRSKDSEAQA

CSCC[C@H](NC(=O)[C@H](CC(C)C)NC(=O)[C@H](CCC(N)=O)NC(=O)[C@H](Cc1c[nH]c2ccccc12)NC(=O)[C@H](CC(C)C)NC(=O)[C@H](CCCNC(=N)N)NC(=O)[C@H](Cc1c[nH]cn1)NC(=O)[C@H](CO)NC(=O)[C@H](CC(C)C)NC(=O)[C@H](CC(N)=O)NC(=O)[C@H](CCC(N)=O)NC(=O)[C@@H](NC(=O)[C@H](CCC(N)=O)NC(=O)[C@@H]1CSSC[C@H](NC(=O)CNC(=O)[C@@H](NC(=O)[C@H](CCCNC(=N)N)NC(=O)[C@H](CC(C)C)NC(=O)[C@H](CC(C)C)NC(=O)[C@H](CCC(N)=O)NC(=O)[C@H](C)NC(=O)[C@H](CCC(N)=O)NC(=O)[C@@H](N)[C@@H](C)O)C(C)C)C(=O)N[C@@H](C(C)C)C(=O)N[C@@H](CC(C)C)C(=O)NCC(=O)N[C@@H]([C@@H](C)O)C(=O)N1)C(C)C)C(=O)NCC(=O)N1CCC[C@H]1C(=O)N[C@@H](C)C(=O)NCC(=O)N[C@@H](CCCNC(=N)N)C(=O)N[C@@H](CCC(N)=O)C(=O)N[C@@H](CC(=O)O)C(=O)N[C@@H](CO)C(=O)N[C@@H](C)C(=O)N1CCC[C@H]1C(=O)N[C@H](C(=O)N[C@@H](CC(=O)O)C(=O)N1CCC[C@H]1C(=O)N[C@@H](CO)C(=O)N[C@@H](CO)C(=O)N1CCC[C@H]1C(=O)N[C@@H](Cc1c[nH]cn1)C(=O)N[C@@H](CO)C(=O)N[C@@H](Cc1ccc(O)cc1)C(N)=O)C(C)C [AM2, adrenomedullin 2]
Emax: 44.4 ± 7.1%
